tested on: human cytomegalovirus (HCMV); assay: anti-HCMV screening test: spread of the cytopathogenic effect in HELF cell cultures, 96-well microtitre plates; assay type: cell-based; details: Human betaherpesvirus 5; HCMV-infected HELF cells, CPE, Neutral Red staining
Protocol: The anti-HCMV action was determined in a screening test system in 96-well microtitre plates with the aid of human embryonic lung fibroblast (HELF) cell cultures. The effect of the substances on the spread of the cytopathogenic effect was determined in comparison with the reference substance ganciclovir (Cymevene® sodium), a clinically approved anti-HCMV chemotherapeutic.
The substances dissolved (50 mM) in DMSO (dimethyl sulphoxide) are investigated on microtitre plates (96-well) in duplicate determinations (4 substances/plate). Toxic and cytostatic substance effects are additionally detected at the same time. After the appropriate substance dilutions (1:2) on the microtitre plate, a suspension of 50-100 HCMV-infected HELF cells and […] non-infected HELF cells in Eagle's MEM with 10% foetal calf serum is added to each well, and the plates are incubated at 37° C. in a CO2 incubator for several days. After this time, the cell lawn in the sub-stance-free virus controls, starting from 50-100 infectious centres, is completely destroyed by the cytopathogenic effect of the HCMV (100% CPE). After staining with Neutral Red and fixing with formalin/methanol, the plates are assessed with the aid of a projection microscope (plaque-viewer).

Row | EC50 | Compound
1 | 64 nM | CN(C)c1cccc2c(S(=O)(=O)Nc3ccc(NC(=O)C(C)(C)CF)cc3)cccc12 [Example 13]
2 | 880 nM | CN(C)c1cccc2c(S(=O)(=O)Nc3ccc(NC(=O)C(C)(CO)CO)cc3)cccc12 [Example 24]
3 | 640 nM | CN(C)c1cccc2c(S(=O)(=O)Nc3ccc(NC(=O)C(C)(C)CN)cc3)cccc12 [Example 25]
4 | 28 nM | CN(C)c1cccc2c(S(=O)(=O)Nc3ccc(NC(=O)C(C)(C)CCl)cc3)cccc12 [Example 16]

tested on: not given; assay: not given; details: not given

Row | melting point | Compound
5 | > 240 °C | CC(=O)Nc1ccc(S(=O)(=O)Nc2ccc(NC(=O)C(C)(C)C)cc2)c2ccccc12
6 | 216 °C | CC(C)(C)C(=O)Nc1ccc(NS(=O)(=O)c2ccc(N)c3ccccc23)cc1
7 | 248 °C (dec.) | CNc1ccc(S(=O)(=O)Nc2ccc(NC(=O)C(C)(C)C)cc2)c2ccccc12
